Source: patent US20160015725A1, “METHODS OF CONTROLLING TUMOR BIOENERGETICS NETWORKS” (THE WISTAR INSTITUTE OF ANATOMY AND BIOLOGY, priority 2012, published 2016)

Legend:
Type in all cases: cell-based, human
[1] = tested on: AMP-activated kinase (AMPK); experiment: AMPK phosphorylation in tumor cells, Western blotting; details: tumor cells
mTORC1 = mTORC1 signaling in tumor cells, Western blotting
tumor cells [2] = experiment: ER UPR markers (Western blotting, Xbp1 splicing, RT-qPCR); details: for ER UPR markers (CHOP, C/EBPβ, Grp78): tumor cells, Western blotting; for effect on Gamitrinib-induced AMPK phosphorylation and ER stress/UPR markers: agent added to Gamitrinib
PC3 cells = experiment: ER stress luciferase-promoter reporter assay; details: PC3, 20 h
Protocol: In another series of experiments, PC3 cells were transfected with control or Grp78-directed siRNA, and analyzed for cell viability after 24 h by an MTT assay. For promoter analysis, PC3 cells were plated in triplicate onto 48-well plates at 1.4×10^4 cells/well, and cotransfected with Firefly Luciferase-reporters for IRE1, ATF6, PERK or CHOP and a constitutive reporter (pTK-Renilla Luc) in a 10:1 ratio using X-tremeGENE reagent (Roche). After 24 h, cells were treated with vehicle, Gamitrinib, tunicamycin or 2-DG and analyzed after 20 h for Firefly and Renilla luciferase activity using a Dual Luciferase Reporter Assay System (Promega). Transfection of plasmid DNAs was carried out with lipofectamine 2000 (Invitrogen) according to published protocols. A PPIase-defective CypD H168Q mutant cDNA was generated by Quick-Change site-directed mutagenesis (Stratagene) using primers 5′-[…]-3′ (forward) and 5′-[…]-3′ (reverse) (mutated sequences are bolded). The inserted mutation (bolded) was confirmed by DNA sequencing, and cloned in a pcDNA3.0 expression vector (Invitrogen) for reconstitution experiments in CypD−/− MEFs.

LN229 cells = experiment: Cell viability by MTT
Protocol: Various cell types were seeded in triplicate onto 96-well plates at 4×10^3 cells/well, treated with vehicle, Gamitrinib or 17-AAG (0-20 μM) for 12 h, and analyzed for changes in metabolic activity by an MTT assay. For determination of apoptosis, LN229 cells ([…]) were labeled for annexin V and propidium iodide (PI) (BD Biosciences), and analyzed by multiparametric flow cytometry (BD).

[3] = tested on: multiple tumor cell types; experiment: ATP production in tumor cells (luciferin-luciferase)
Protocol: Intracellular ATP concentrations were measured by the luciferin—luciferase method using an ATP measuring kit (Biochain). The ATP concentration in each extract was measured with a microplate luminometer (Beckman Coulter) against standard ATP solutions used as reference. In some experiments, PC3 or LN229 cells were preincubated with sodium pyruvate for 7 h in the presence of vehicle or Gamitrinib before determination of ATP production.

hexokinase = experiment: Hexokinase activity in mitochondrial fractions of treated cells; details: LN229 mitochondrial fractions, 5 h
Protocol: HK activity in LN229 cells was measured as the total glucosephosphorylating activity using a standard G6PDH-coupled assay kit (BioVision). Mitochondria isolated from Gamitrinib- or 17-AAG-treated LN229 cells, or cultures transfected with various siRNAs were homogenized in cold PBS, followed by centrifugation at 1000 g for 10 min at 4° C. HK activity was determined by analysis of G6P-dependent conversion of NADP to NADPH in the presence of excess […] in the presence of 2 mM glucose, and quantification of absorbance at 450 nm. All assays were performed at 25° C. under conditions of linear HK-limited NADPH formation.

[4] = tested on: V600E mutant BRAF melanoma cells; experiment: AMPK and autophagy signaling in mutant BRAF melanoma cells
Description: (§1) Human glioblastoma LN229, prostate adenocarcinoma PC3 or LNCaP cells, or normal NIH3T3 fibroblasts were obtained from the American Tissue Culture Collection (ATCC, Manassas, Va.), and maintained in culture according to the supplier's specifications. The following wild type (WT) BRAF N-Ras mutant melanoma cells WM852 and WM1366, and melanoma cells carrying a V600E activating mutation in the BRAF oncogene, 451Lu, Me11617 and WM983B were used in this study. WT or CypD knockout Mouse Embryonic Fibroblasts (MEFs, CypD−/−) were characterized earlier 40. In some experiments, CypD−/− MEFs were stably transfected with control plasmid, WT CypD or peptidyl prolyl isomerase (PPIase)-deficient H168Q CypD mutant cDNA, and analyzed for differential recruitment of HK-II to mitochondrial or cytosolic fractions.
(§2) For Western blotting, protein lysates were prepared from the different cell types in RIPA Buffer (150 mM NaCl, 1.0% Triton X-100, 0.5% sodium deoxycholate, 0.1% SDS, 50 mM Tris, pH 8.0) containing EDTA-free Protease Inhibitor Cocktail (Roche) and Phosphatase Inhibitor Cocktail 2 and 3 (Sigma Aldrich). Equal amounts of protein lysates were separated by SDS gel electrophoresis, transferred to PVDF membranes and incubated with primary antibodies of various specificities. Protein bands were detected by chemiluminescence.
(§3) Samples were imaged using a Leica TCS SP2 confocal microscope. For determination of autophagy, cells under the various conditions tested were harvested after 12 h, and analyzed with an antibody to […] (LC3) by Western blotting.

WT BRAF melanoma cells = experiment: AMPK and autophagy signaling in WT BRAF melanoma cells; details: WT BRAF melanoma cells
Description: as §1, §2, §3

tumor cells [5] = experiment: Autophagy (LC3 conversion, LC3-CFP puncta)
Protocol: LN229 cells were transfected with various siRNAs, and mixed after 24 h with plasmid encoding cyan fluorescent protein (CFP) fused to human […] (LC3) cDNA in the presence of Lipofectamine 2000 Transfection Reagent (Invitrogen). After 48 h, transfected cells were fixed in 4% paraformaldehyde for 15 min at 37° C., washed, and examined by fluorescence microscopy (Nikon, E600). The numbers of CFP-LC3 punctate dots per cell was determined from three independent experiments. A minimum of 50 CFP-LC3-positive cells assessed from at least ten random fields per sample were counted in triplicate per each condition.
as §3

Molecule: O=CC[C@@H](O)[C@H](O)[C@H](O)CO [2-DG, 2-deoxy-D-glucose]
- AMPK phosphorylation [1]: AMPK activation
- phosphorylation of mTOR, 4EBP1 and p70S6 (mTORC1) (mTORC1): suppression of mTORC1 4EPB1 and p70S6 phosphorylation
- ER UPR markers (CHOP, C/EBPβ, Grp78) (tumor cells [2]): concentration (FIG. 14b)- and time (FIG. 14c)-dependent upregulation of ER UPR
- minimal CHOP promoter activity (PC3 cells): transcriptionally induced
- transcriptional activation of response elements of IRE-1, ATF-6 and PERK (PC3 cells): comparably induced transcriptional activation

Molecule: Cn1cnc(N)c2ncnc1-2 [3-MA, 3-methyladenine]
- tumor cell killing mediated by sub-optimal concentrations of Gamitrinib (LN229 cells; agent added to Gamitrinib): enhanced tumor cell killing mediated by sub-optimal concentrations of Gamitrinib

Molecule: C=CCNC1=C2C[C@@H](C)C[C@H](OC)[C@H](O)[C@@H](C)/C=C(\C)[C@H](OC(N)=O)[C@@H](OC)/C=C\C=C(/C)C(=O)NC(=CC1=O)C2=O [17-AAG, 17-allylamino demethoxygeldanamycin, reference compound]
- ATP production ([3]; tumor cell types, non-cytotoxic concentrations, 5 h): had no effect on ATP production
- hexokinase activity (hexokinase): had no effect
- AMPK phosphorylation [1]: not
- phosphorylation of mTOR, 4EBP1 and p70S6 (mTORC1) (mTORC1): had no effect
- tumor cell viability, combination with 3-MA (LN229 cells; 17-AAG plus 3-MA vs each treatment alone): did not decrease tumor cell viability compared to each treatment alone
- AMPK activation ([4]; BRAF mutant melanoma cells): had no effect on AMPK activation
- AMPK phosphorylation (WT BRAF melanoma cells): had no effect on AMPK activation

Molecule: N#CC(C#N)=NNc1cccc(Cl)c1 [CCCP, carbonyl cyanide 3-chlorophenylhydrazone, reference compound]
- AMPK phosphorylation [1]: time-dependent phosphorylation of AMPK
- phosphorylation of mTOR, 4EBP1 and p70S6 (mTORC1) (mTORC1): inhibition of 4EBP1 phosphorylation
- autophagy (LC3-II conversion) (tumor cells [5]): stimulation of LC3-II conversion
- ER UPR markers (CHOP, C/EBPβ, Grp78) (tumor cells [2]): upregulation of CHOP, C/EBPβ, and Grp78

Molecule: CC(=O)N[C@@H](CS)C(=O)O [NAC, N-acetyl-L-cysteine, reference compound]
- effect on Gamitrinib-induced AMPK phosphorylation and ER stress/UPR markers (tumor cells [2]): did not affect

Molecule: N#CC(=C(/N)Sc1ccccc1N)/C(C#N)=C(\N)Sc1ccccc1N [U0126, reference compound]
- AMPK phosphorylation after Gamitrinib treatment ([4]; mutant BRAF melanoma cells, agent added to Gamitrinib): partially restored AMPK phosphorylation

Molecule: CC(=O)C(=O)[O-].[Na+] [sodium pyruvate, reference compound]
- rescue of ATP production in Gamitrinib-treated tumor cells ([3]; exogenous addition, PC3 or LN229, 7 h): failed to rescue ATP production
- effect on Gamitrinib-induced AMPK phosphorylation and ER stress/UPR markers (tumor cells [2]): did not affect

Molecule: tunicamycin
- IRE-1 and CHOP expression (tumor cells [2]; control ER stressor): comparable induction of IRE-1 and CHOP expression
- minimal CHOP promoter activity (PC3 cells): transcriptionally induced
- transcriptional activation of response elements of IRE-1, ATF-6 and PERK (PC3 cells): comparably induced transcriptional activation
